In patent publication US20260137807A1, “COMPOSITIONS AND METHODS FOR DELIVERING A MACROMOLECULE TO A CELL” (AstraZeneca AB, priority 2022, published 2026):

Columns and labels:
mCherry-GAL9 cells = experiment: mCherry-GAL9 assay in live cells for 4 hours, screening; type: cell-based; conditions: 5 μM (FIG. 6-8)
Protocol: Cells were subjected to a 10-point concentration dilution (0-15 μM) for 2 hours and then fixed and imaged (FIG. 3 and FIG. 4). Images were analyzed and curves were generated from both mCherry-GAL9 puncta quantitation and cell survival as determined by nuclear morphology (FIG. 5). The GAL9 recruitment response support the functional splice-switching data with SSOs, confirming the mCherry-GAL9 assay as a powerful tool for screening endosomolytic compounds and supporting the hypothesis that AZ2467 (Compound 6) and AZ4800 (Compound 2) promote SSO activity by inducing endosomal rupture. The GAL9 assay was again conducted, this time in live cells for 4 hours with select compounds for screening. Compounds were screened at 5 μM (FIG. 6-8) or 0.3125-10 μM (FIG. 35-38). FIG. 39 and FIG. 47 provide results for select compounds at various doses 0.3125-10 μM.

N2A_Luc705 cells = experiment: Splice switching activity assay, 24 hr SMC treatment, Examples 4C/4D; type: cell-based; conditions: 2.5 μM compound, 1 μM SSO, FIG. 27
Protocol: (§1) U2OS_Luc705 and N2A_Luc705 cells were seeded in 96-well plates at 10,000 cells per well in growth media with 1 μM Luc705-SSO. The various SMCs were diluted directly into prepared growth media. After 24 hr to allow adherence and SSO internalization, 10 μl of diluted SMC was added into each well at indicated concentrations. For a positive control, SSOs were complexed with Lipofectamine 2000 for 30 min at RT and cells treated with a final concentration of 200 nM. ON concentrations above 200 nM would require LF2000 to be used in excess of the cells' toxicity threshold. After 24 hr treatment, cells were lysed with 0.1% TritonX-100 (Sigma Aldrich, cat no. X100) in 1× PBS (Gibco, cat no. 10010023).
(§2) For the detection of luciferase activity, 30 μL of cell lysate was transferred to white-walled plates. The luciferase intensity in each well was immediately measured via luminometer following auto-injection of 25 μL Luciferin substrate as per the Promega Firefly Luciferase Assay System. The timing parameters of photon measurements were optimized for this procedure.
as §1, with “The” for “U2OS_Luc705 and N2A_Luc705 cells were seeded in 96-well plates at 10,000 cells per well in growth media with 1 μM Luc705-SSO. The”

U2OS_Luc705 cells = experiment: as above; type: cell-based; conditions: 2.5 μM compound, 1 μM SSO, FIG. 27
Protocol: as §1, §2
as §1, with “The” for “U2OS_Luc705 and N2A_Luc705 cells were seeded in 96-well plates at 10,000 cells per well in growth media with 1 μM Luc705-SSO. The”

Floxed mice = experiment: Co-delivery of Cre recombinase, in vivo editing tdTomato reporter, ICV
Protocol: Cre recombinase ([…] […] […] […] […] […] […] (SEQ ID NO: 10)) was co-administered with Compound 4 to assess improvement in editing efficiency in an in vivo reporter system, in which edited mice express tdTomato. Floxed mice were administered via intracerebroventricular injection (ICV) with 60 pmol Cre recombinase and varying concentrations (2.5, 5.0, 7.5, 10.0, 12.5, and 15 μM) of Compound 4 as calculated in 40 μL CSF volume. Brain segments were analyzed by immunofluorescent staining 7 days post-treatment.

[1] = test system: anti-CD3/28 stimulated T cells; experiment: Co-delivery of Cre recombinase, ex vivo editing of T cells; type: cell-based, mice
Protocol: The combination of Cre recombinase with Compound 4 was also tested in ex vivo editing of anti-CD3/28 stimulated T cells. […], then treated with 2.5 μM of Compound 4 with varying concentrations of Cre recombinase (50, 100, 200, 500 and 1000 nM), either on a U-plate with no mixing (T1) or mixed in a tube shaker during treatment (T2).

HEK cells = experiment: Co-delivery of ABE8e base editor, GFP reporter; type: cell-based; conditions: 50 nM ABE8e, Compound 4 concentrations above 2.5 μM, FIG. 46B
Protocol: The ABE8e base editor comprising SpCas9 D10A nickase and a modified TadA adenosine deaminase (Richter et al., Nature Biotechnol. 38:883-891 (2020)) was co-administered with Compound 4 to assess improvement in editing efficiency in an in vitro reporter system in which edited cells express GFP. […] The bar shading and lines showing total cell counts, viable cells, and edited cells are the same as in FIG. 43A.
HEK cells were co-administered with a fixed concentration (50 nM) of ABE8e and varying concentrations of AZ3327 (Compound 4). The results in FIG. 46B show greater than 90% editing efficiency at Compound 4 concentrations of above 2.5 μM.
HEK and N2a cells were co-administered with a fixed concentration (2.5 μM) of Compound 4 and varying concentrations of ABE8e.

[2] = non-activated T cells, FIG. 45A

Row | Structure (SMILES) | GAL9 recruitment, reason for selection for further characterization (mCherry-GAL9 cells) | activity of the oligo as compared to oligo only (N2A_Luc705 cells) | activity of the oligo as compared to oligo only (U2OS_Luc705 cells) | in vivo editing in the brain (tdTomato staining) (Floxed mice; ICV, 60 pmol Cre, 2.5-15 μM compound, 7 days post-treatment) | staining in the lumbar sections of the spinal cord (Floxed mice; ICV, 60 pmol Cre, FIG. 44B) | location of editing (Floxed mice; dissection segments, FIG. 44C) | editing efficiency ([1]; activated T cells, 2.5 μM compound, FIG. 45C) | proliferative capacity ([1]; activated T cells, FIG. 45C) | editing [1, 2] | proliferation rate [1, 2] | editing efficiency (HEK cells)
1 | COc1nn(C2CCNCC2)cc1Nc1ncc(Cl)c(-n2ccc3c(C#N)cccc32)n1 [Compound 2] | efficacy at shorter-term timepoints |  |  |  |  |  |  |  |  |  | 
2 | COc1nn(C2CCNCC2)cc1Nc1ncc(F)c(-n2ccc3c(C#N)cccc32)n1 [Compound 4] |  | enhanced activity of the oligo as compared to oligo only | enhanced activity of the oligo as compared to oligo only | enhanced by Compound 4 in a dose-dependent manner | obvious staining | primarily at the injection site | greater than 90% | without affecting proliferative capacity | highly edited | compromised | greater than 90%
